Tests used:
Assay in all cases: relative viability (nuclei count vs DMSO), 5 days (fraction); higher = more cells survive
NCI-H1666 = test system: NCI-H1666
Outline: (§1)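 The day after seeding in 1536-well plates, lung cancer cell lines were treated by pin tool with a single drug, or with a fixed anchor-drug dose together with five library-drug doses (not always all listed) in √10 steps. After 5 days, a combined fix-and-stain solution (final 0.05% Triton X-100, 1% formaldehyde, 1 ug/ml Hoechst) was added. Nuclei counted on 4× images gave relative viability as treated counts over vehicle counts, reported as the median of duplicate plates.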

ABC-1 = test system: ABC-1
Outline: as §1

NCI-H1355 = test system: NCI-H1355
Outline: as §1

NCI-H727 = test system: NCI-H727
Outline: as §1

NCI-H2170 = test system: NCI-H2170
Outline: as §1

NCI-H460 = test system: NCI-H460
Outline: as §1

SW 1573 = test system: SW 1573
Outline: as §1

NCI-H520 = test system: NCI-H520
Outline: as §1

NCI-H647 = test system: NCI-H647
Outline: as §1

NCI-H441 = test system: NCI-H441
Outline: as §1

NCI-H1944 = test system: NCI-H1944
Outline: as §1

O=C(O)CCCCC(CCSCc1ccccc1)SCc1ccccc1 (stereo not given) [CPI-613] + C[C@@H](Oc1cc(-c2cnn(C3CCNCC3)c2)cnc1N)c1c(Cl)ccc(F)c1Cl [Crizotinib] (partner 1 µM)
relative viability (NCI-H1666; first compound 5 µM): 0.863 | relative viability (NCI-H1666; first compound 15.81 µM): 0.995 | relative viability (NCI-H1666; first compound 50 µM): 1.03 | relative viability (NCI-H1666; first compound 158.11 µM): 0.236 | relative viability (NCI-H1666; first compound 500 µM): 0.131 | relative viability (ABC-1; first compound 5 µM): 0.984 | relative viability (ABC-1; first compound 15.81 µM): 0.855 | relative viability (ABC-1; first compound 50 µM): 0.875 | relative viability (ABC-1; first compound 158.11 µM): 0.367 | relative viability (ABC-1; first compound 500 µM): 0.213 | relative viability (NCI-H1355; first compound 5 µM): 1.09 | relative viability (NCI-H1355; first compound 15.81 µM): 1.01 | relative viability (NCI-H1355; first compound 50 µM): 1.07 | relative viability (NCI-H1355; first compound 158.11 µM): 0.152 | relative viability (NCI-H1355; first compound 500 µM): 0.136 | relative viability (NCI-H727; first compound 5 µM): 0.875 | relative viability (NCI-H727; first compound 15.81 µM): 0.743 | relative viability (NCI-H727; first compound 50 µM): 0.797 | relative viability (NCI-H727; first compound 158.11 µM): 0.244 | relative viability (NCI-H727; first compound 500 µM): 0.0831 | relative viability (NCI-H2170; first compound 5 µM): 1.15 | relative viability (NCI-H2170; first compound 15.81 µM): 1.18 | relative viability (NCI-H2170; first compound 50 µM): 1.13 | relative viability (NCI-H2170; first compound 158.11 µM): 0.746 | relative viability (NCI-H2170; first compound 500 µM): 0.335 | relative viability (NCI-H460; first compound 5 µM): 0.889 | relative viability (NCI-H460; first compound 15.81 µM): 0.892 | relative viability (NCI-H460; first compound 50 µM): 0.728 | relative viability (NCI-H460; first compound 158.11 µM): 0.115 | relative viability (NCI-H460; first compound 500 µM): 0.0085 | relative viability (SW 1573; first compound 5 µM): 0.81 | relative viability (SW 1573; first compound 15.81 µM): 0.749 | relative viability (SW 1573; first compound 50 µM): 0.878 | relative viability (SW 1573; first compound 158.11 µM): 0.819 | relative viability (SW 1573; first compound 500 µM): 0.419 | relative viability (NCI-H520; first compound 5 µM): 0.721 | relative viability (NCI-H520; first compound 15.81 µM): 0.716 | relative viability (NCI-H520; first compound 50 µM): 0.626 | relative viability (NCI-H520; first compound 158.11 µM): 0.233 | relative viability (NCI-H520; first compound 500 µM): 0.106 | relative viability (NCI-H647; first compound 5 µM): 0.853 | relative viability (NCI-H647; first compound 15.81 µM): 1.01 | relative viability (NCI-H647; first compound 50 µM): 0.769 | relative viability (NCI-H647; first compound 158.11 µM): 0.0681 | relative viability (NCI-H647; first compound 500 µM): 0.0175 | relative viability (NCI-H441; first compound 5 µM): 0.685 | relative viability (NCI-H441; first compound 15.81 µM): 0.683 | relative viability (NCI-H441; first compound 50 µM): 0.635 | relative viability (NCI-H441; first compound 158.11 µM): 0.303 | relative viability (NCI-H441; first compound 500 µM): 0.343 | relative viability (NCI-H1944; first compound 5 µM): 1.22 | relative viability (NCI-H1944; first compound 15.81 µM): 1.02 | relative viability (NCI-H1944; first compound 50 µM): 1.07 | relative viability (NCI-H1944; first compound 158.11 µM): 1.06 | relative viability (NCI-H1944; first compound 500 µM): 0.891
